Measurements from ChEMBL document CHEMBL5291721, “A preclinical secondary pharmacology resource illuminates target-adverse drug reaction associations of marketed drugs” (Nat Commun, 2023).
“And” between values parts separate entries of the source, which are not always exact repeats. Identical values can stand only once.

Key:
Vasopressin V2 receptor = Vasopressin V2 receptor (Homo sapiens, UniProt P30518)
[1] = target: T1, 5-hydroxytryptamine receptor 1A (Homo sapiens, UniProt P08908); type: functional, cell-based
T1 sequence (P08908 whole entry): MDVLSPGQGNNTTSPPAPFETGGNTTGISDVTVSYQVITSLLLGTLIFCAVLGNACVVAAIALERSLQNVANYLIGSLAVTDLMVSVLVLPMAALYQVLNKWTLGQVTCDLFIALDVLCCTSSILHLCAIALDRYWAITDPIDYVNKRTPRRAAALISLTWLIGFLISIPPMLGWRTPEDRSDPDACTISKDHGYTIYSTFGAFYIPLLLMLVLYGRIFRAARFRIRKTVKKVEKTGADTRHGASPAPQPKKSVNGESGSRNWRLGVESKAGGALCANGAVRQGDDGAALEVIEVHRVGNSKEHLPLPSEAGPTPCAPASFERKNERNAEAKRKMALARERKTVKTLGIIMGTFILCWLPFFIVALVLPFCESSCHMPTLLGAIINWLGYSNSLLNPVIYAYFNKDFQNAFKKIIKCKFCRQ

Cannabinoid receptor 1 = Cannabinoid receptor 1 (Homo sapiens, UniProt P21554); type: functional, cell-based
[2] = target: Voltage-dependent L-type calcium channel subunit alpha-1C (Rattus norvegicus, UniProt P22002); type: functional
[3] = target: T2, Alpha-2A adrenergic receptor (Homo sapiens, UniProt P08913); type: functional, cell-based
T2 sequence (P08913 whole entry): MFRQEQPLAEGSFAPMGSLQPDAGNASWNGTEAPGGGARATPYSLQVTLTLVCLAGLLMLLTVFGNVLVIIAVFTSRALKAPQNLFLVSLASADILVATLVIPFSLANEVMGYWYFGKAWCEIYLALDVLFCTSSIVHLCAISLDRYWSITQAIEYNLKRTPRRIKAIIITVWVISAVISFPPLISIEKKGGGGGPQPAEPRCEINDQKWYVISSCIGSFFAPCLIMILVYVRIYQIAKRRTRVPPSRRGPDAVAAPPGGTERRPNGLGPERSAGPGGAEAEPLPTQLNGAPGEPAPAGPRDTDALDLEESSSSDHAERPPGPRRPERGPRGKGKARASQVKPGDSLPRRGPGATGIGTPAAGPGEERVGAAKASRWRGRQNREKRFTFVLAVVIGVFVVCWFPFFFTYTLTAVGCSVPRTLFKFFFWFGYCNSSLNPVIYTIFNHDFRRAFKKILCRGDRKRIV

Adenosine receptor A1 = target: T3, Adenosine receptor A1 (Homo sapiens, UniProt P30542)
T3 sequence (P30542 whole entry): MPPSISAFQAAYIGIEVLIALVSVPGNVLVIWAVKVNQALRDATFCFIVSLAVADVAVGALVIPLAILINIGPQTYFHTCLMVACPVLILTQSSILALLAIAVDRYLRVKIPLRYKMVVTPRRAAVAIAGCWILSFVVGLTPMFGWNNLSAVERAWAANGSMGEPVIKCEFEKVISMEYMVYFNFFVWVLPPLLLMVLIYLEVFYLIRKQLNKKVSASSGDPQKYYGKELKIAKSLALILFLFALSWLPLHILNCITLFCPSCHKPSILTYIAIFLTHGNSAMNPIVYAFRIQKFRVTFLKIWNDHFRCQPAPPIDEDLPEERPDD

[4] = target: Sodium-dependent dopamine transporter (Homo sapiens, UniProt Q01959)
[5] = target: 3',5'-cyclic-AMP phosphodiesterase 4D (Homo sapiens, UniProt Q08499); type: functional
Progesterone receptor = target: T4, Progesterone receptor (Homo sapiens, UniProt P06401); type: functional
T4 sequence (P06401 whole entry): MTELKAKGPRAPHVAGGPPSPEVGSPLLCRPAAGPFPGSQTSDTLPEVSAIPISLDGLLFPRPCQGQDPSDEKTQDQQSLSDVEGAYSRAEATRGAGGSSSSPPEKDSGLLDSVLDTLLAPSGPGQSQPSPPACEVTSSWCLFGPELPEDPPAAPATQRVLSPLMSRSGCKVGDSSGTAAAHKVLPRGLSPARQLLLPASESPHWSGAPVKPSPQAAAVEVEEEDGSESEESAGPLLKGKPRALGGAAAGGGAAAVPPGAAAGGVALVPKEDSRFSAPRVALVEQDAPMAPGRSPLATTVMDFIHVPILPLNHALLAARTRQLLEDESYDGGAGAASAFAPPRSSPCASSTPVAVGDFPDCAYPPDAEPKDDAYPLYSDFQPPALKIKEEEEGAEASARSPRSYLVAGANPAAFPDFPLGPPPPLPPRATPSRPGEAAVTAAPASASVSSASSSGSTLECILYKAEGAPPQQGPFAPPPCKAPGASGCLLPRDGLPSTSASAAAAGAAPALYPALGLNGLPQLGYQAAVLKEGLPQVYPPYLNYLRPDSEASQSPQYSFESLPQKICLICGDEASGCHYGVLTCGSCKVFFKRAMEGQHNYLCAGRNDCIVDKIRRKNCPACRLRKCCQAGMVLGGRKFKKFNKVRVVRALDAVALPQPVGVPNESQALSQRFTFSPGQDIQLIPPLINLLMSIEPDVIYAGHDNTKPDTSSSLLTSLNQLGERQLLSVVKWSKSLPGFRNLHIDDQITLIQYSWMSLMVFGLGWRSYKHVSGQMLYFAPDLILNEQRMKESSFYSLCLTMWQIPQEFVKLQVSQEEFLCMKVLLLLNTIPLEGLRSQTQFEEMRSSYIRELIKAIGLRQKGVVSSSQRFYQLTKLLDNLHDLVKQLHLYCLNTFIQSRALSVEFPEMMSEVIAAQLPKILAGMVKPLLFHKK

Melanocortin receptor 3 = Melanocortin receptor 3 (Homo sapiens, UniProt P41968)
Adenosine receptor A3 = target: T5, Adenosine receptor A3 (Homo sapiens, UniProt P0DMS8)
T5 sequence (P0DMS8 whole entry): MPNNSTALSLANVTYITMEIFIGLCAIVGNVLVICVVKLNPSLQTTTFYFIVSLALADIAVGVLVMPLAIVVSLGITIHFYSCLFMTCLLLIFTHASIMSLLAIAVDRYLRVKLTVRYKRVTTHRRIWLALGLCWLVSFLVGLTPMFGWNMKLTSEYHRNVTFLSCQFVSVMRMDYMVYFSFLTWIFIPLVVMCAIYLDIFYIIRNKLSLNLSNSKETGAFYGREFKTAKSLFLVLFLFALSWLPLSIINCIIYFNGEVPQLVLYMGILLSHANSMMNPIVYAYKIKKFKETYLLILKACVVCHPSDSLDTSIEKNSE
Further: assay procedure not described here.

Sequence of Melanocortin receptor 3 (P41968 whole entry): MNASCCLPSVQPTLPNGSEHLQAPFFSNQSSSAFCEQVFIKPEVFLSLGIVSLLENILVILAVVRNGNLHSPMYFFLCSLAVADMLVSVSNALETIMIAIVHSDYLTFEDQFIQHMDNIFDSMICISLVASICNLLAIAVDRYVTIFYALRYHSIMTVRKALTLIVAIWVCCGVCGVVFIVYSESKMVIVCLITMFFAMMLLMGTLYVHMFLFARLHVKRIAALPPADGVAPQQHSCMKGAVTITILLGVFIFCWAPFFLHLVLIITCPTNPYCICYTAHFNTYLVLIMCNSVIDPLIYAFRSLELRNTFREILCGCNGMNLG
Sequence of Vasopressin V2 receptor (P30518 whole entry): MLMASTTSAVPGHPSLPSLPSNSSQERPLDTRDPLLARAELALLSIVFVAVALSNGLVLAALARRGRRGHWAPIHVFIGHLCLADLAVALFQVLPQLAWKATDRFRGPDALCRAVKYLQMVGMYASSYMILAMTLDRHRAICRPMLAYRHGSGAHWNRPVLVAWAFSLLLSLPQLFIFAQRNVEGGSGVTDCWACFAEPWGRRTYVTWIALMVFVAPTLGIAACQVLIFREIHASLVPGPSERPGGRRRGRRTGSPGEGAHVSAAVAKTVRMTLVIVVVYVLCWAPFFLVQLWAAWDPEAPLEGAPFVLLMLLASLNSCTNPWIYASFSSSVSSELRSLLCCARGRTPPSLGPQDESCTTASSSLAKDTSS
Sequence of Sodium-dependent dopamine transporter (Q01959 whole entry): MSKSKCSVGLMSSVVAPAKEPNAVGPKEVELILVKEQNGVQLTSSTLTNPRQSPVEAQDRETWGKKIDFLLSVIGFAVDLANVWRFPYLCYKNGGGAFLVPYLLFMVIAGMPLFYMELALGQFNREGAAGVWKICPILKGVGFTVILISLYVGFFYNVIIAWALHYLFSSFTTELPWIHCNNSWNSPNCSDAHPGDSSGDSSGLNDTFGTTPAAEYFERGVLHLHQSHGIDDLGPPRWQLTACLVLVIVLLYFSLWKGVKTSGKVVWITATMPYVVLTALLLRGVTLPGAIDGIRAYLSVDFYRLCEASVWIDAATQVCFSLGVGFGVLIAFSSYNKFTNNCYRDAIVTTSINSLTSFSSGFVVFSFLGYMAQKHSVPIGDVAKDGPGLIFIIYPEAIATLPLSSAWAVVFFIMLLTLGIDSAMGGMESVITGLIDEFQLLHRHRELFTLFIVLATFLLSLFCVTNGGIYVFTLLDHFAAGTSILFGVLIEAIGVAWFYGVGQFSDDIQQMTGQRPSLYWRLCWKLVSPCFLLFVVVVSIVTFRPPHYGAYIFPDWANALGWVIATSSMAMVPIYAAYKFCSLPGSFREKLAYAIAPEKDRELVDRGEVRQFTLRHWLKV
Sequence of 3',5'-cyclic-AMP phosphodiesterase 4D (Q08499 whole entry): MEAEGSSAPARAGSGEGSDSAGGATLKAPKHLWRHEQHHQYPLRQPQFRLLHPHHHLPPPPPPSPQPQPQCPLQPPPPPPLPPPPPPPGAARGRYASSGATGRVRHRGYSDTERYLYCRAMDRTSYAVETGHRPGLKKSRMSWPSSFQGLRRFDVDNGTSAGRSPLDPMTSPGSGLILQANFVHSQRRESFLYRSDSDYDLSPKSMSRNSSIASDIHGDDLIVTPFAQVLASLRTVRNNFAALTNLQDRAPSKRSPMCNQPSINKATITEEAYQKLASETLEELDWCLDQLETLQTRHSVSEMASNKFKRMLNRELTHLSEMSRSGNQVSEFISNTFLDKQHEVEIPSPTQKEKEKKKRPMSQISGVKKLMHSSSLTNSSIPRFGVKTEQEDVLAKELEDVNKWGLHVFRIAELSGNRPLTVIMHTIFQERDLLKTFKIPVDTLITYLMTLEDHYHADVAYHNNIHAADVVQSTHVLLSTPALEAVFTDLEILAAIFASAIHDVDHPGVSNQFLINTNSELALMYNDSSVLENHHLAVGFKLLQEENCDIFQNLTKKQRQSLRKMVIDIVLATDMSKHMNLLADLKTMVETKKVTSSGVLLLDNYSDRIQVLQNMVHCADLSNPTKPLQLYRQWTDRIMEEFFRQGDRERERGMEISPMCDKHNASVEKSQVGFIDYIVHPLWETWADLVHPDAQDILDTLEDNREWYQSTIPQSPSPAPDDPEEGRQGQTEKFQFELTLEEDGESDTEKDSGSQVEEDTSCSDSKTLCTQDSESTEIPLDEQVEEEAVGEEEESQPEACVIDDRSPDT
Sequence of Voltage-dependent L-type calcium channel subunit alpha-1C (P22002 whole entry): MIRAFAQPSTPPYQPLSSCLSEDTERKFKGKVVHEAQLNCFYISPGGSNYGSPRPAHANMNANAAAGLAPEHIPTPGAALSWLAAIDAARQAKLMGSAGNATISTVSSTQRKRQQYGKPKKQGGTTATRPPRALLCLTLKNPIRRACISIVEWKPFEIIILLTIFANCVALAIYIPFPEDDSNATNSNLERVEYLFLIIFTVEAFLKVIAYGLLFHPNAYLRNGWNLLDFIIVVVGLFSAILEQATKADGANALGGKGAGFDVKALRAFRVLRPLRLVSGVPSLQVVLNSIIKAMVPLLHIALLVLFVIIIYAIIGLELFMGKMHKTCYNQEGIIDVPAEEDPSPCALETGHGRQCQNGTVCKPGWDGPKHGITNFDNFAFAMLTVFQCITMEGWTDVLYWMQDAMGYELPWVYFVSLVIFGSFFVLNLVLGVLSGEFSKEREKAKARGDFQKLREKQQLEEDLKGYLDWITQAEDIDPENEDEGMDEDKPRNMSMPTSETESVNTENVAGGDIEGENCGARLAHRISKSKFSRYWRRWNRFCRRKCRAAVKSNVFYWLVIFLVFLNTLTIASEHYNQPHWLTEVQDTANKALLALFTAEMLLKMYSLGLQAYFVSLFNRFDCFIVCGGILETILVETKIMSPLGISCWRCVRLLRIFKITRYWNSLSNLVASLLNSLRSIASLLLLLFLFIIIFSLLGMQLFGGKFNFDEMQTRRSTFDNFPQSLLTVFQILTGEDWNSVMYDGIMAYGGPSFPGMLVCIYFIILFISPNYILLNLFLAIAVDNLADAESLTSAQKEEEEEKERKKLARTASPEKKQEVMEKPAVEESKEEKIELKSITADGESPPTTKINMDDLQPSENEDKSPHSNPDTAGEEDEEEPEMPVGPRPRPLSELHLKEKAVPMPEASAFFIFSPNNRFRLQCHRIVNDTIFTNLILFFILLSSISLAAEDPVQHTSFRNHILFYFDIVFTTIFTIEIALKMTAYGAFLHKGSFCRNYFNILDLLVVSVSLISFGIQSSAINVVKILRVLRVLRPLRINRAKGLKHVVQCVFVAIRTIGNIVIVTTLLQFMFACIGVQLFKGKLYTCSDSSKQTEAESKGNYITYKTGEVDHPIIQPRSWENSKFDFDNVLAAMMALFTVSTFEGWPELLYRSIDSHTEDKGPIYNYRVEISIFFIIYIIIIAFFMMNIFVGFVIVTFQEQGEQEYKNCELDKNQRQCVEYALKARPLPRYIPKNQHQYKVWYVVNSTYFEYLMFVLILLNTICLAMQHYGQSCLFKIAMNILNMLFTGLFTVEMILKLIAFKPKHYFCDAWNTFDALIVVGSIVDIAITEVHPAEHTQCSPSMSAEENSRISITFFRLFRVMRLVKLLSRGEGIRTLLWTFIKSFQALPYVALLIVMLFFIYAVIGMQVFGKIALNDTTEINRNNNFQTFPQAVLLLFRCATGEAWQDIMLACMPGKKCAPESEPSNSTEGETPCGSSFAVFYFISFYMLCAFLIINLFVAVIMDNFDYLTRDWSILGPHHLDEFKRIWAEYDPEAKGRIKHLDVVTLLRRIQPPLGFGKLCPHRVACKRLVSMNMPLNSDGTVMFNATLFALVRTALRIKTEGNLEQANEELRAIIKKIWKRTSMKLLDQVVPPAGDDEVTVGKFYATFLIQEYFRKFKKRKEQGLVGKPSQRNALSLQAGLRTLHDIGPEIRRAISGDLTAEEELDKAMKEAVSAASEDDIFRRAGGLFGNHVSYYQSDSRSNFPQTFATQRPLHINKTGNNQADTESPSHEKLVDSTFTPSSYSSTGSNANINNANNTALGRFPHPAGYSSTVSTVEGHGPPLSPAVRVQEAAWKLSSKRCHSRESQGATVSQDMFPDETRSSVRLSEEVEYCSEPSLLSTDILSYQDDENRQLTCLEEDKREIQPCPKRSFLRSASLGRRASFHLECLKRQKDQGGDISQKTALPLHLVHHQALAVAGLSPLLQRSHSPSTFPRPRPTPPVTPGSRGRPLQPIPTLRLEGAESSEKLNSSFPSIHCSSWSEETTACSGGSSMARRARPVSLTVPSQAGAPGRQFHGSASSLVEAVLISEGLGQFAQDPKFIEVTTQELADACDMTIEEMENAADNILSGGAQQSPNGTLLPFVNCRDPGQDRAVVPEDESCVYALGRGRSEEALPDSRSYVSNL
Sequence of Cannabinoid receptor 1 (P21554 whole entry): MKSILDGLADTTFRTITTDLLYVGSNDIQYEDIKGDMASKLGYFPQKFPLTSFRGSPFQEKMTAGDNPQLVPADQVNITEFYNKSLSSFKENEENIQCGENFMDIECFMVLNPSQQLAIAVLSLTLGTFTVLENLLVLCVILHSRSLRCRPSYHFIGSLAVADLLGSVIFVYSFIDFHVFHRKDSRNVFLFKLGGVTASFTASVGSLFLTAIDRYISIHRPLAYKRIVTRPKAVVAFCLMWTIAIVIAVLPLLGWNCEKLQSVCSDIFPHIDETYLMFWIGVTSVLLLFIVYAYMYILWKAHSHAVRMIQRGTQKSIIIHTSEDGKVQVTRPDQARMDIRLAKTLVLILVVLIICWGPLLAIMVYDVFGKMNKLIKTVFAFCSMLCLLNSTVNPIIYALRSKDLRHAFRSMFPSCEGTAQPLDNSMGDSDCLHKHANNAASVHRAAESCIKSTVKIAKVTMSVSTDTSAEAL

| Structure (SMILES) | AC50 (Vasopressin V2 receptor) [µM] | AC50 [1] [µM] | AC50 (Cannabinoid receptor 1) [µM] | AC50 [2] [µM] | AC50 [3] [µM] | AC50 (Adenosine receptor A1) [µM] | AC50 [4] | AC50 [5] [µM] | AC50 (Progesterone receptor) [µM] | AC50 (Melanocortin receptor 3) [µM] | AC50 (Adenosine receptor A3) [µM] |
| --- | --- | --- | --- | --- | --- | --- | --- | --- | --- | --- | --- |
| N#Cc1ccccc1-c1cc(-c2ccccn2)cn(-c2ccccc2)c1=O | > 30 | > 30 | > 30 | > 30 | > 30 | > 30 | > 30 µM | 13 | > 30 | > 30 | > 30 |
| CCCC(C)(COC(N)=O)COC(=O)NC(C)C (stereo unspecified) [CARISOPRODOL] | > 30 | > 10 | > 30 | > 10 | > 10 | > 30 | > 10 µM | > 30 | – | > 30 | > 30 |
| N[C@H](Cc1cc(I)c(Oc2cc(I)c(O)c(I)c2)c(I)c1)C(=O)O [DEXTROTHYROXINE] | > 30 | > 10 | > 30 | > 10 | > 10 | > 30 | > 30 µM | 0.26 | – | > 30 | 12.5 |
| Clc1ccc2c(c1)C(c1ccccc1)=NCc1nncn1-2 [ESTAZOLAM] | > 30 | > 10 | > 30 | > 10 | > 10 | > 30 | > 30 µM | 10 | – | > 30 | > 30 |
| CC(=O)OCC(CCn1cnc2cnc(N)nc21)COC(C)=O [FAMCICLOVIR] | > 30 | > 10 | > 30 | > 10 | > 10 | > 30 | > 10 µM | > 30 | – | > 30 | > 30 |
| Clc1ccc(C(Cn2ccnc2)OCc2ccc(Sc3ccccc3)cc2)c(Cl)c1 (stereo unspecified) [FENTICONAZOLE] | > 30 | > 30 | 1.3 | 12 | > 30 | > 30 | – | 18 | > 30 | 21 | 6.4 |
| O=C(O)c1ccccc1Nc1cccc(C(F)(F)F)c1 [FLUFENAMIC ACID] | > 30 | > 30 | > 30 | > 10 | > 30 | > 30 | > 30 µM | > 30 | – | > 30 | 26.3 |
| COC1=C(OC)C(=O)C(CCCCCCCCCCO)=C(C)C1=O [IDEBENONE] | 10.9 | > 10 | > 30 | > 10 | > 10 | > 30 | > 10 µM | > 10 | – | > 30 | > 30 |
| O=C1CN=C(c2ccccc2)c2cc(Cl)ccc2N1 [NORDAZEPAM] | > 30 | > 10 | > 30 | > 10 | > 10 | > 30 | > 10 µM | 12 | – | > 30 | > 30 |
| CC(CCc1ccccc1)NC(C)C(O)c1ccc(O)cc1 (stereo unspecified) [NYLIDRIN] | > 30 | > 10 | > 30 | > 10 | 19 | > 30 | 1.44 µM | > 30 | – | > 30 | > 30 |
| O=C1Nc2ccc(Cl)cc2C(c2ccccc2)=NC1O (stereo unspecified) [OXAZEPAM] | > 30 | > 10 | > 30 | > 10 | > 10 | > 30 | > 10 µM | > 10 | – | > 30 | > 30 |
| CC(=O)c1ccc2c(c1)N(CCCN1CCC(CCO)CC1)c1ccccc1S2 [PIPERACETAZINE] | > 30 | > 30 | > 30 | > 30 | – | > 30 | 7.6 µM | > 30 | > 30 | > 30 | > 30 |
| NC(=O)CCC/N=C(\c1ccc(Cl)cc1)c1cc(F)ccc1O [PROGABIDE] | > 10 | > 10 | – | > 10 | > 10 | > 10 | > 10 µM | > 10 | > 10 | > 10 | > 10 |
| CC(NCCc1ccc(O)cc1)C(O)c1ccc(O)cc1 (stereo unspecified) [RITODRINE] | > 30 | > 30 | – | > 10 | > 30 | > 30 | 19.5 µM and 12.3 µM | > 30 | > 30 | > 30 | > 30 |
| CC(C)CC(N(C)C)C1(c2ccc(Cl)cc2)CCC1 (stereo unspecified) [SIBUTRAMINE] | > 30 | > 30 | > 30 | > 10 | 30 | > 30 | 0.75 µM | > 30 | – | > 30 | > 30 |
| Cc1cccc(N(C)C(=S)Oc2ccc3ccccc3c2)c1 [TOLNAFTATE] | > 10 | > 10 | – | 25 | > 10 | > 10 | > 10 µM | > 30 | > 30 | > 10 | > 10 |
| CN1[C@@H]2CC[C@H]1C[C@@H](OC(=O)c1c[nH]c3ccccc13)C2 [TROPISETRON] | > 30 | > 30 | > 30 | > 30 | > 30 | > 30 | > 30 µM | > 30 | – | > 30 | > 30 |
